The values below come from US20060264418A1, “6-(2,2,2-Trifluoroethylamino-7-chloro-2,3,4,5-tetrahydro-1h-benzo[d] azephine as a 5-ht2c receptor agonist” (priority 2003, published 2006).

In one assay the target is T1, human 5-HT2B receptor (Homo sapiens, UniProt P41595).
T1 construct: expressed in transfected cells; host or cells: AV12 cells
Put plainly: G alpha q-GTPγ[35S] binding agonist activity assay (ISPA), 5-HT2B. The assay is classed as biochemical. The method, then:
Agonist Activity Assays (G Alpha g-GTPγ[^35S] Binding Assays)
The 5-HT2 receptors are functionally coupled to specific G-proteins. Agonist activation of 5-HT2 G-protein-coupled receptors results in the release of GDP from the α-subunit (G alpha q or G alpha i) of the G-protein and the subsequent binding of GTP. The binding of the stable analog GTPγ[^35S] is an indicator of receptor activation (i.e. agonist activity).
The area under the dose response curve (AUC) is also determined for each receptor subtype and used to measure the test compound's selectivity for the 5-HT2C receptor over the 5-HT2A and 5-HT2B receptors, expressed as Selectivity Ratios (AUC 2C/2A and AUC 2C/2B, respectively). The Selectivity Ratios allow the assessment of selectivity based on both potency and efficacy. A selectivity measure that incorporates both potency and efficacy at the 5-HT2C receptor, as compared to the 5-HT2A and 5-HT2B.receptors, is considered important due to the adverse events associated with 5-HT2A and 5-HT2B agonist activity (see introduction). […]
G alpha q-GTPγ[^35S] […] Quantitate the GTPγ[^35] binding by microtiter plate scintillation spectrometry (Wallac Trilux MicroBeta™ scintillation counter). […]
On the technique in general: GTPγS is a poorly hydrolysed GTP analogue; its binding reports G protein activation.

The next assay relates to male NIH Swiss mice. Put plainly: Nestlet shredding. Format: in vivo, mouse. The settings on record: 30 min. The text has this: Mice naturally will construct nests of material available in their living environment. Since this behavior is obsessive in nature, it has been used to model OCD (Mia Li, Denise Morrow and Jeffrey M. Witkin, “Decreases in nestlet shredding of mice by serotonin uptake inhibitors: comparison with marble burying”, Psychopharmacology, submitted Jul. 14, 2003). House experimentally-naïve male, NIH Swiss mice (Harlan Sprague-Dawley, Indianapolis, Ind.) weighing between 28-35 g in groups of 12 for at least three days prior to testing in a vivarium with a 12 hr. light/dark cycle. Conduct experiments during the light cycle in an experimental room with normal overhead fluorescent lighting. Dose mice with vehicle or test compound and after a specified pretreatment interval (generally 30 min.), place the mice individually in a 17×28×12 cm high plastic tub with about 5 mm sawdust shavings on the floor along with a pre-weighed multi-ply gauze pad (51 mm square). After 30 min., weigh the remainder of the gauze pad not removed by the mouse. Determine the weight of the gauze used for nestlet construction by subtraction. Compare the results for test compound treated mice to the results for vehicle control treated mice with Dunnett's test.
Clinically effective OCD treatment standard compounds suppress nestlet shredding at doses that are devoid of motor-impairing effects as measured by the rotorod test. […]

T1 sequence (P41595 whole entry): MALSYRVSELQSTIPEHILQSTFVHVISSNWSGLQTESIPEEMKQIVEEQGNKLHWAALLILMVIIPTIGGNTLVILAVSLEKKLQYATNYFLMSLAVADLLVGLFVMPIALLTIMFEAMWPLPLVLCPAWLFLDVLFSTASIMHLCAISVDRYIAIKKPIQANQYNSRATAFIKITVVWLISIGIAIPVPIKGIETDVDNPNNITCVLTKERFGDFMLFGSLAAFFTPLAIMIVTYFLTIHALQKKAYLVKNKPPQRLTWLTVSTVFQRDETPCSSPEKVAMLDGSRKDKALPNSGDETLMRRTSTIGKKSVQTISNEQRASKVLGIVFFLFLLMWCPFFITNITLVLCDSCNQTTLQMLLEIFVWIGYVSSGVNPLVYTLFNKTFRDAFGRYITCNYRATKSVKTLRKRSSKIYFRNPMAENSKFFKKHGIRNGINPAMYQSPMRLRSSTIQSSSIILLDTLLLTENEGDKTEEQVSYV

At human 5-HT2B receptor, `FC(F)(F)CNc1c(Cl)ccc2c1CCNCC2.O=C(O)CCC(=O)O` [Example 2, 7-Chloro-6-(2,2,2-trifluoroethylamino)-2,3,4,5-tetrahydro-1H-benzo[d]azepine Succinic Acid Salt] returned an Emax of 33.9 ± 1%. On human 5-HT2B receptor (AV12 cell membranes with human 5-HT2B, ± standard error of the mean), this molecule displayed an EC50 of 119 ± 34 nM. In addition, the “nestlet shredding (relative to motor effects, rotorod test)” value in the assay on male NIH Swiss mice is listed as “suppress nestlet shredding at doses that were devoid of motor-impairing effects”.

The term Emax denotes the greatest response seen or fitted, relative to the assay's reference. Usually EC50 stands for the midpoint of the concentration-response curve. Lower therefore signals an effect from little substance.
